Tests used:
HCV replicon [1] = assay: HCV replicon FRET / luciferase assay (NeoLuc); format: cell-based, HCV genotype 1b; conditions: HCV replicon cells
Description: FRET Assay Preparation. To perform the HCV FRET screening assay, 96-well cell culture plates were used. The FRET peptide (Anaspec, Inc.) (Taliani et al., Anal. Biochem. 1996, 240, 60-67) contains a fluorescence donor, EDANS, near one end of the peptide and an acceptor, DABCYL, near the other end. The fluorescence of the peptide is quenched by […] resonance energy transfer (RET) between the donor and the acceptor, but as the NS3 protease cleaves the peptide the products are released from RET quenching and the fluorescence of the donor becomes apparent. The assay reagent was made as follows: 5× cell Luciferase cell culture lysis reagent from Promega (#E153A) diluted to 1× with dH2O, NaCl added to 150 mM final, the FRET peptide diluted to 20 μM final from a 2 mM stock.
To prepare plates, HCV replicon cells, with or without a Renilla luciferase reporter gene, were trypsinized and placed into each well of a 96-well plate with titrated test compounds added in columns 3 through 12; columns 1 and 2 contained a control compound (HCV protease inhibitor), and the bottom row contained cells without compound. The plates were then placed in a CO2 incubator at 37° C.
Assays. Subsequent to addition of the test compounds described above (FRET Assay Preparation), at various times the plate was removed and Alamar blue solution (Trek Diagnostics, #00-100) was added per well as a measure of cellular toxicity. After reading in a Cytoflour 4000 instrument (PE Biosystems), plates were rinsed with PBS and then used for FRET assay by the addition of 30 ul of the FRET peptide assay reagent described above (FRET Assay Preparation) per well. The plate was then placed into the Cytoflour 4000 instrument which had been set to 340 excite/490 emission, automatic mode for 20 cycles and the plate read in a kinetic mode. Typically, the signal to noise using an endpoint analysis after the reads was at least three-fold. Alternatively, after Alamar blue reading, plates were rinsed with PBS, 50 ul of DMEM (high glucose) without phenol red was added and plates were then used for luciferase assay using the Promega Dual-Glo Luciferase Assay System,
Compound analysis was deteiniined by quantification of the relative HCV replicon inhibition and the relative cytotoxicity values. To calculate cytoxicity values, the average Alamar Blue fluorescence signals from the control wells were set as 100% non-toxic. The individual signals in each of the compound test wells were then divided by the average control signal and multiplied by 100% to determine […]. To calculate the HCV replicon inhibition values, an average background value was obtained from the two wells containing the highest amount of HCV protease inhibitor at the end of the assay period. These numbers were similar to those obtained from naïve Huh-7 cells.
The background numbers were then subtracted from the average signal obtained from the control wells and this number was used as 100% activity. The individual signals in each of the compound test wells were then divided by the averaged control values after background subtraction and multiplied by 100% to determine percent activity. EC50 values for a protease inhibitor titration were calculated as the concentration which caused a 50% reduction in FRET or luciferase activity. The two numbers generated for the compound plate, percent cytoxicity and percent activity were used to determine compounds of interest for further analysis.

HCV replicon [2] = assay: HCV Replicon Luciferase Reporter Assay (LE Assay); format: cell-based, HCV genotype 1b
Method: The HCV replicon luciferase assay was developed to monitor the inhibitory effects of compounds described in the disclosure on HCV viral replication. Utilization of a replicon luciferase reporter assay was first described by Krieger et al (Krieger N, Lohmann V, and Bartenschlager R, J. Virol. 75(10):4614-4624 (2001)). HUH-7 cells, constitutively expressing the HCV replicon, were grown in Dulbeccors Modified Eagle Media (DMEM) (Gibco-BRL) containing 10% Fetal calf serum (FCS) (Sigma) and 1 mg/ml G418 (Gibco-BRL). Compounds were serially diluted 3 folds in DMSO for a twenty-point titration and subsequently transferred to sterile 384-well tissue-culture treated plates (Coming cat #3571). The plates were then seeded with 50 μl of cells at a density of 3.0×10^3 cells/well in DMEM containing 4% FCS (final DMSO concentration at 0.5%). After 3 days incubation at 37° C., cells were analyzed for Renilla Luciferase activity using the EnduRen as substrate (Promega cat #E6485). The EnduRen substrate was diluted in DMEM and then added to the plates to a final concentration of 7.5 μM. The plates were incubated for 2 hrs at 37° C. and then read immediately for 30 seconds with Viewlux Imager (PerkinElmer) using a luminescence program. To assess cytotoxicity of compounds, CC50 values were generated by multiplexing the EnduRen-containing plates with Cell Titer-Blue (Promega, cat #G8082). 3 μl of Cell-Titer Blue was added to each well and incubated for 8 hrs at 37° C. The fluorescence signal from each well was read, with an excitation wavelength at 525/10 nm and an emission wavelength of 598/10 nm, using the Viewlux Imager.

[3] = Hepatitis C virus, genotype 1b, read-out: NeoLuc EC50, Table 1, genotype 1b
[4] = Hepatitis C virus, genotype 1b, Huh-7, read-out: LE NeoLuc EC50, Table 1, HUH-7 cells, genotype 1b replicon
[5] = Hepatitis C virus, Table 2, read-out: NeoLuc EC50
[6] = Hepatitis C virus, Huh-7, Table 2, HUH-7 cells, read-out: LE NeoLuc EC50
[7] = Table 2, HUH-7 cells, read-out: LE NeoLuc EC50

COc1ccc2c(c1)[C@@H]1C[C@]1(C(=O)N1CC34CN(C)CC3(CN(C)C4)C1)Cn1c-2c(C2CCCCC2)c2ccc(C(=O)NS(=O)(=O)C(C)C)cc21 (some centres unmarked)
EC50 (HCV replicon [1]; [3]): 1.9 to 500 nM
EC50 (HCV replicon [2]; [4]): 1.9 to 500 nM

COc1ccc2c(c1)[C@@H]1C[C@]1(C(=O)N1CC34COCC3(C1)CN(C1CC1)C4)Cn1c-2c(C2CCCCC2)c2ccc(C(=O)NS(=O)(=O)C(C)C)cc21 (some centres unmarked)
EC50 (HCV replicon [1]; [3]): 1.9 to 500 nM
EC50 (HCV replicon [2]; [4]): 1.9 to 500 nM

COc1ccc2c(c1)[C@@H]1C[C@]1(C(=O)N1CC34COCC3(C1)N(C(C)=O)C4)Cn1c-2c(C2CCCCC2)c2ccc(C(=O)NS(=O)(=O)C(C)C)cc21 (some centres unmarked) [drawing 73]
EC50 (HCV replicon [1]; [3]): 1.9 to 500 nM
EC50 (HCV replicon [2]; [4]): 1.9 to 500 nM

CCN1CC23COCC2(C1)CN(C(=O)[C@]12C[C@H]1c1cc(OC)ccc1-c1c(C4CCCCC4)c4ccc(C(=O)NS(=O)(=O)C(C)C)cc4n1C2)C3 (some centres unmarked)
EC50 (HCV replicon [1]; [3]): 1.9 to 500 nM
EC50 (HCV replicon [2]; [4]): 1.9 to 500 nM

COc1ccc2c(c1)C1CC1(C(=O)N1CC34CN(C)CC3(CN(C)C4)C1)Cn1c-2c(C2CCCCC2)c2ccc(C(=O)NS(=O)(=O)N(C)C)cc21 (centres unmarked)
EC50 (HCV replicon [1]; [3]): 1.9 to 500 nM
EC50 (HCV replicon [2]; [4]): 1.9 to 500 nM

COc1ccc2c(c1)[C@@H]1C[C@]1(C(=O)N1CC34COCC3(C1)N(C(C)=O)C4)Cn1c-2c(C2CCCCC2)c2ccc(C(=O)NS(=O)(=O)N(C)C)cc21 (some centres unmarked)
EC50 (HCV replicon [1]; [3]): 1.9 to 500 nM
EC50 (HCV replicon [2]; [4]): 1.9 to 500 nM

COc1ccc2c(c1)C1CC1(C(=O)N1CC34COCC3(CN(C)C4)C1)Cn1c-2c(C2CCCCC2)c2ccc(C(=O)NS(=O)(=O)N(C)C)cc21 (centres unmarked) [drawing 106]
EC50 (HCV replicon [1]; [5]): 20 nM
EC50 (HCV replicon [2]; [6]): 40 nM

COc1ccc2c(c1)C=C(C(=O)N1CC34CNCC3(COC4)C1)Cn1c-2c(C2CCCCC2)c2ccc(C(=O)NS(=O)(=O)C3CC3)cc21 (centres unmarked)
EC50 (HCV replicon [1]; [3]): 1.9 to 500 nM
EC50 (HCV replicon [2]; [4]): 1.9 to 500 nM

COc1ccc2c(c1)C=C(C(=O)N1CC34COCC3(CN(C)C4)C1)Cn1c-2c(C2CCCCC2)c2ccc(C(=O)NS(=O)(=O)C3CC3)cc21 (centres unmarked)
EC50 (HCV replicon [1]; [3]): 1.9 to 500 nM
EC50 (HCV replicon [2]; [4]): 1.9 to 500 nM

COc1ccc2c(c1)[C@@H]1C[C@]1(C(=O)N1CC34CNCC3(COC4)C1)Cn1c-2c(C2CCCCC2)c2ccc(C(=O)NS(=O)(=O)C(C)C)cc21 (some centres unmarked)
EC50 (HCV replicon [1]; [3]): 1.9 to 500 nM
EC50 (HCV replicon [2]; [4]): 1.9 to 500 nM

COc1ccc2c(c1)[C@@H]1C[C@]1(C(=O)N1CC34COCC3(CN(C)C4)C1)Cn1c-2c(C2CCCCC2)c2ccc(C(=O)NS(=O)(=O)C(C)C)cc21 (some centres unmarked)
EC50 (HCV replicon [1]; [3]): 1.9 to 500 nM
EC50 (HCV replicon [2]; [4]): 1.9 to 500 nM

COc1ccc2c(c1)CC(C(=O)N1CC34COCC3(CN(C)C4)C1)Cn1c-2c(C2CCCCC2)c2ccc(C(=O)NS(=O)(=O)C3CC3)cc21 (centres unmarked)
EC50 (HCV replicon [1]; [3]): 1.9 to 500 nM
EC50 (HCV replicon [2]; [4]): 1.9 to 500 nM

COc1ccc2c(c1)C1CC1(C(=O)N1CC34CNCC3(CN(C)C4)C1)Cn1c-2c(C2CCCCC2)c2ccc(C(=O)NS(=O)(=O)N(C)C)cc21 (centres unmarked)
EC50 (HCV replicon [1]; [3]): 1.9 to 500 nM
EC50 (HCV replicon [2]; [4]): 1.9 to 500 nM

COc1ccc2c(c1)[C@@H]1C[C@]1(C(=O)N1CC34COCC3(C1)N(C(C)=O)C4)Cn1c-2c(C2CCCCC2)c2ccc(C(=O)NS(=O)(=O)C(C)C)cc21 (some centres unmarked) [drawing 109]
EC50 (HCV replicon [1]; Table 2, read-out: NeoLuc EC50): 130 nM
EC50 (HCV replicon [2]; [7]): 90 nM

COc1ccc2c(c1)C1CC1(C(=O)N1CC34COCC3(CN(C)C4)C1)Cn1c-2c(C2CCCCC2)c2ccc(C(=O)NS(=O)(=O)N(C)C)cc21 (centres unmarked) [drawing 61]
EC50 (HCV replicon [1]; [3]): 1.9 to 500 nM
EC50 (HCV replicon [2]; [4]): 1.9 to 500 nM

COc1ccc2c(c1)C1CC1(C(=O)N1CC34COCC3(CN(C(C)=O)C4)C1)Cn1c-2c(C2CCCCC2)c2ccc(C(=O)NS(=O)(=O)CC(C)C)cc21 (centres unmarked)
EC50 (HCV replicon [1]; [3]): 1.9 to 500 nM
EC50 (HCV replicon [2]; [4]): 500 to 1000 nM

COc1ccc2c(c1)CC(C(=O)N1CC34CN(C)CC3(CN(C)C4)C1)Cn1c-2c(C2CCCCC2)c2ccc(C(=O)NS(=O)(=O)N(C)C)cc21 (centres unmarked)
EC50 (HCV replicon [1]; [3]): 1.9 to 500 nM
EC50 (HCV replicon [2]; [4]): 1.9 to 500 nM

COc1ccc2c(c1)C=C(C(=O)N1CC34CN(C)CC3(CN(C)C4)C1)Cn1c-2c(C2CCCCC2)c2ccc(C(=O)NS(=O)(=O)N(C)C)cc21 (centres unmarked)
EC50 (HCV replicon [1]; [3]): 1.9 to 500 nM
EC50 (HCV replicon [2]; [4]): 1.9 to 500 nM

COc1ccc2c(c1)C=C(C(=O)N1CC34COCC3(CN(C)C4)C1)Cn1c-2c(C2CCCCC2)c2ccc(C(=O)NS(=O)(=O)N(C)C)cc21 (centres unmarked)
EC50 (HCV replicon [1]; [3]): 1.9 to 500 nM
EC50 (HCV replicon [2]; [4]): 1.9 to 500 nM

COc1ccc2c(c1)C1CC1(C(=O)N1CC34CNCC3(COC4)C1)Cn1c-2c(C2CCCCC2)c2ccc(C(=O)NS(=O)(=O)N(C)C)cc21 (centres unmarked)
EC50 (HCV replicon [1]; [3]): 1.9 to 500 nM
EC50 (HCV replicon [2]; [4]): 1.9 to 500 nM

COc1ccc2c(c1)[C@@H]1C[C@]1(C(=O)N1CC34CNCC3(CN(C)C4)C1)Cn1c-2c(C2CCCCC2)c2ccc(C(=O)NS(=O)(=O)C(C)C)cc21 (some centres unmarked)
EC50 (HCV replicon [1]; [3]): 1.9 to 500 nM
EC50 (HCV replicon [2]; [4]): 500 to 1000 nM

COc1ccc2c(c1)CC(C(=O)N1CC34CNCC3(COC4)C1)Cn1c-2c(C2CCCCC2)c2ccc(C(=O)NS(=O)(=O)C3CC3)cc21 (centres unmarked)
EC50 (HCV replicon [1]; [3]): > 1000 nM
EC50 (HCV replicon [2]; [4]): 500 to 5000 nM

COc1ccc2c(c1)[C@@H]1C[C@]1(C(=O)N1CC34COCC3(C1)N(C(C)=O)C4)Cn1c-2c(C2CCCCC2)c2ccc(C(=O)NS(=O)(=O)C(C)C)cc21 (some centres unmarked) [drawing 110]
EC50 (HCV replicon [1]; Table 2, read-out: NeoLuc EC50): 10 nM
EC50 (HCV replicon [2]; [7]): 30 nM

COc1ccc2c(c1)C=C(C(=O)N1CC34CNCC3(COC4)C1)Cn1c-2c(C2CCCCC2)c2ccc(C(=O)NS(=O)(=O)N(C)C)cc21 (centres unmarked)
EC50 (HCV replicon [1]; [3]): 1.9 to 500 nM
EC50 (HCV replicon [2]; [4]): 1.9 to 500 nM

COc1ccc2c(c1)C1CC1(C(=O)N1CC34CNCC3(CN(C)C4)C1)Cn1c-2c(C2CCCCC2)c2ccc(C(=O)NS(=O)(=O)C3CC3)cc21 (centres unmarked)
EC50 (HCV replicon [1]; [5]): > 1000 nM
EC50 (HCV replicon [2]; [6]): 2100 nM

COc1ccc2c(c1)C=C(C(=O)N1CC34COCC3(C1)N(C(C)=O)C4)Cn1c-2c(C2CCCCC2)c2ccc(C(=O)NS(=O)(=O)N(C)C)cc21 (centres unmarked)
EC50 (HCV replicon [1]; [3]): 1.9 to 500 nM
EC50 (HCV replicon [2]; [4]): 1.9 to 500 nM

COc1ccc2c(c1)CC(C(=O)N1CC34CNCC3(CN(C)C4)C1)Cn1c-2c(C2CCCCC2)c2ccc(C(=O)NS(=O)(=O)C3CC3)cc21 (centres unmarked)
EC50 (HCV replicon [1]; [3]): > 1000 nM
EC50 (HCV replicon [2]; [4]): 500 to 1000 nM

C=C(C)S(=O)(=O)NC(=O)c1ccc2c(C3CCCCC3)c3n(c2c1)C[C@@]1(C(=O)N2CC45COCC4(CN(C)C5)C2)C[C@H]1c1cc(OC)ccc1-3 (some centres unmarked)
EC50 (HCV replicon [1]; [3]): 1.9 to 500 nM
EC50 (HCV replicon [2]; [4]): 1.9 to 500 nM

Reference: US8143244B2, “Cyclopropyl fused indolobenzazepine HCV NS5B inhibitors” (Bristol-Myers Squibb Company, priority 2009, dated 2012)
